# From US10160753B2, “Indazole compounds as IRAK4 inhibitors” (Aurigene Discovery Technologies Limited, priority 2014, dated 2018)
# pIC50: −log10 of the molar value. Structures can show the parent of a compound that is named as a salt.
# Target: T1, recombinant IRAK-4 kinase (Homo sapiens, UniProt Q9NWZ3)
# T1 construct: purchased Millipore, USA
# T1 sequence (Q9NWZ3 1-460): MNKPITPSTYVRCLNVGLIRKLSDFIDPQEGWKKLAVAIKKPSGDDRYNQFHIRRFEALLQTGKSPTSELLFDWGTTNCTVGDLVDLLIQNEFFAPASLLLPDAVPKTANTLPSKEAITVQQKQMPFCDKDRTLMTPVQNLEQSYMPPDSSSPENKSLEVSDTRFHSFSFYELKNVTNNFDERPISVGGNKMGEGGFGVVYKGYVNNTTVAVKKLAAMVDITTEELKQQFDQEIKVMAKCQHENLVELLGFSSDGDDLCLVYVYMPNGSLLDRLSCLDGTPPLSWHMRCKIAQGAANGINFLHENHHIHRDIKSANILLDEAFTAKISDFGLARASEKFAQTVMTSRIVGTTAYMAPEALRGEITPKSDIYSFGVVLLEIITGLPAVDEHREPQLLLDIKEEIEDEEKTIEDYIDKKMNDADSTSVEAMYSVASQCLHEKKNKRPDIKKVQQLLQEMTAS
# Test: IRAK-4 Biochemical Assay (TR-FRET)
# Conditions: 30 min pre-incubation, 100 nM Biotin Histone H3, 20 μM ATP, read-out: IC50 values for IRAK4 activity
row,SMILES,pIC50
1,"COCCn1cc2cc(NC(=O)c3coc(-c4ccnc(C)c4)n3)c(N3CCC(CO)CC3)cc2n1 [Example 96, N-(6-(4-(hydroxymethyl)piperidin-1-yl)-2-(2-methoxyethyl)-2H-indazol-5-yl)-2-(2-methylpyridin-4-yl)oxazole-4-carboxamide]",> 7.30
2,"COc1cc(-c2nc(C(=O)Nc3cc4cn(C)nc4cc3N3CCC(CO)CC3)co2)ccn1 [Example 97, N-(6-(4-(hydroxymethyl)piperidin-1-yl)-2-methyl-2H-indazol-5-yl)-2-(2-methoxypyridin-4-yl)oxazole-4-carboxamide]",> 7.30
3,"CC(=O)Nc1cc(-c2nc(C(=O)Nc3cc4cn(C)nc4cc3N3CCC(CO)CC3)co2)ccn1 [Example 98, 2-(2-acetamidopyridin-4-yl)-N-(6-(4-(hydroxymethyl)piperidin-1-yl)-2-methyl-2H-indazol-5-yl)oxazole-4-carboxamide]",> 7.30
4,"Cn1ncc2cc(NC(=O)c3coc(-c4ccnc(N)c4)n3)c(N3CCC(CO)CC3)cc21 [Example 99, 2-(2-aminopyridin-4-yl)-N-(6-(4-(hydroxymethyl)piperidin-1-yl)-1-methyl-1H-indazol-5-yl)oxazole-4-carboxamide hydrochloride]",> 7.30
5,"Cn1cc2cc(NC(=O)c3coc(-c4ccnc(N)c4)n3)c(N3CCC(CO)CC3)cc2n1 [Example 100, 2-(2-aminopyridin-4-yl)-N-(6-(4-(hydroxymethyl)piperidin-1-yl)-2-methyl-2H-indazol-5-yl)oxazole-4-carboxamide hydrochloride]",> 7.30
6,"COc1cc(-c2nc(C(=O)Nc3cc4cnn(C)c4cc3N3CCC(O)CC3)co2)ccn1 [Example 101, N-(6-(4-hydroxypiperidin-1-yl)-1-methyl-1H-indazol-5-yl)-2-(2-methoxypyridin-4-yl)oxazole-4-carboxamide]",> 7.30
7,"Cn1cc2cc(NC(=O)c3coc(-c4ccnc(N)c4)n3)c(N3CCCC(O)C3)cc2n1 (stereo not drawn) [Example 102, 2-(2-aminopyridin-4-yl)-N-(6-(3-hydroxypiperidin-1-yl)-2-methyl-2H-indazol-5-yl)oxazole-4-carboxamide hydrochloride]",> 7.30
8,"COc1cc(-c2nc(C(=O)Nc3cc4cn(C)nc4cc3N3CCCCC3)co2)ccn1 [Example 103, 2-(2-methoxypyridin-4-yl)-N-(2-methyl-6-(piperidin-1-yl)-2H-indazol-5-yl)oxazole-4-carboxamide]",> 7.30
9,"Cn1cc2cc(NC(=O)c3coc(-c4ccnc(N)c4)n3)c(N3CCCC(F)C3)cc2n1 (stereo not drawn) [Example 104, 2-(2-aminopyridin-4-yl)-N-(6-(3-fluoropiperidin-1-yl)-2-methyl-2H-indazol-5-yl)oxazole-4-carboxamide hydrochloride]",> 7.30
10,"Cn1cc2cc(NC(=O)c3coc(-c4ccnc(N)c4)n3)c(N3CC[C@@H](O)C3)cc2n1 [Example 105, (R)-2-(2-aminopyridin-4-yl)-N-(6-(3-hydroxypyrrolidin-1-yl)-2-methyl-2H-indazol-5-yl)oxazole-4-carboxamide hydrochloride]",> 7.30
11,"COCC(=O)OC1CCN(c2cc3c(cc2NC(=O)c2coc(-c4ccnc(C)c4)n2)c(C)nn3C)CC1 [Example 106, 1-(1,3-dimethyl-5-(2-(2-methylpyridin-4-yl)oxazole-4-carboxamido)-1H-indazol-6-yl)piperidin-4-yl 2-methoxyacetate]",> 7.30
12,"COc1cc(-c2nc(C(=O)Nc3cc4cn(C)nc4cc3N3CCC(O)CC3)co2)ccn1 [Example 107, N-(6-(4-hydroxypiperidin-1-yl)-2-methyl-2H-indazol-5-yl)-2-(2-methoxypyridin-4-yl)oxazole-4-carboxamide hydrochloride]",> 7.30
13,"COCCn1ncc2cc(NC(=O)c3coc(-c4ccnc(C)c4)n3)c(N3CCC(N)CC3)cc21 [Example 108, N-(6-(4-aminopiperidin-1-yl)-1-(2-methoxyethyl)-1H-indazol-5-yl)-2-(2-methylpyridin-4-yl)oxazole-4-carboxamide hydrochloride]",> 7.30
14,"Cc1cc(-c2nc(C(=O)Nc3cc4cn(C)nc4cc3N3CCC(N)CC3)co2)ccn1 [Example 109, N-(6-(4-aminopiperidin-1-yl)-2-methyl-2H-indazol-5-yl)-2-(2-methylpyridin-4-yl)oxazole-4-carboxamide hydrochloride]",> 7.30
15,"COCCn1nc(C)c2cc(NC(=O)c3coc(-c4ccnc(C)c4)n3)c(N3CCC(CO)CC3)cc21 [Example 110, N-(6-(4-(hydroxymethyl)piperidin-1-yl)-1-(2-methoxyethyl)-3-methyl-1H-indazol-5-yl)-2-(2-methylpyridin-4-yl)oxazole-4-carboxamide]",> 7.30
16,"Cc1cc(-c2nc(C(=O)Nc3cc4c(C)nn(C)c4cc3N3CCC(CO)CC3)co2)ccn1 [Example 111, N-(6-(4-(hydroxymethyl)piperidin-1-yl)-1,3-dimethyl-1H-indazol-5-yl)-2-(2-methylpyridin-4-yl)oxazole-4-carboxamide]",> 7.30
17,"Cc1nn(C)c2cc(N3CCC(CO)CC3)c(NC(=O)c3coc(-c4ccnc(N)c4)n3)cc12 [Example 112, 2-(2-aminopyridin-4-yl)-N-(6-(4-(hydroxymethyl)piperidin-1-yl)-1,3-dimethyl-1H-indazol-5-yl)oxazole-4-carboxamide]",> 7.30
18,"Cn1ncc2cc(NC(=O)c3coc(-c4ccnc(O)c4)n3)c(N3CCC(O)CC3)cc21 [Example 113, N-(6-(4-hydroxypiperidin-1-yl)-1-methyl-1H-indazol-5-yl)-2-(2-hydroxypyridin-4-yl)oxazole-4-carboxamide]",> 7.30
19,"CCOP(=O)(OCC)OC1CCN(c2cc3c(cnn3C)cc2NC(=O)c2coc(-c3ccnc(C)c3)n2)CC1 [Example 128, Diethyl (1-(1-methyl-5-(2-(2-methylpyridin-4-yl)oxazole-4-carboxamido)-1H-indazol-6-yl)piperidin-4-yl) phosphate]",7.00 to 7.30
20,"CCOP(=O)(OCC)OCC1CCN(c2cc3nn(C)cc3cc2NC(=O)c2coc(-c3ccnc(C)c3)n2)CC1 [Example 129, Diethyl ((1-(2-methyl-5-(2-(2-methylpyridin-4-yl)oxazole-4-carboxamido)-2H-indazol-6-yl)piperidin-4-yl)methyl) phosphate]",> 7.30

# The next lines start with the values.
row,pIC50,SMILES
1,> 7.30,"Cc1cc(-c2nc(C(=O)Nc3cc4cnn(C)c4cc3N3CCC(O)CC3)co2)cc(C)n1 [Example 114, 2-(2,6-dimethylpyridin-4-yl)-N-(6-(4-hydroxypiperidin-1-yl)-1-methyl-1H-indazol-5-yl)oxazole-4-carboxamide]"
2,> 7.30,"Cc1cc(-c2nc(C(=O)Nc3cc4cnn(C)c4cc3N3CC[C@H](O)C3)co2)ccn1 [Example 115, (S)—N-(6-(3-hydroxypyrrolidin-1-yl)-1-methyl-1H-indazol-5-yl)-2-(2-methylpyridin-4-yl)oxazole-4-carboxamide]"
3,> 7.30,"COCCn1nc(C)c2cc(NC(=O)c3coc(-c4ccnc(C)c4)n3)c(N3CCC(O)CC3)cc21 [Example 116, N-(6-(4-hydroxypiperidin-1-yl)-1-(2-methoxyethyl)-3-methyl-1H-indazol-5-yl)-2-(2-methylpyridin-4-yl)oxazole-4-carboxamide]"
4,> 7.30,"Cc1cc(-c2nc(C(=O)Nc3cc4cnn(CCO)c4cc3N3CCC(O)CC3)co2)ccn1 [Example 117, N-(1-(2-hydroxyethyl)-6-(4-hydroxypiperidin-1-yl)-1H-indazol-5-yl)-2-(2-methylpyridin-4-yl)oxazole-4-carboxamide]"
5,> 7.30,"COCCn1cc2cc(NC(=O)c3coc(-c4ccnc(C)c4)n3)c(N3CCC(N)CC3)cc2n1 [Example 118, N-(6-(4-aminopiperidin-1-yl)-2-(2-methoxyethyl)-2H-indazol-5-yl)-2-(2-methylpyridin-4-yl)oxazole-4-carboxamide hydrochloride]"
6,> 7.30,"Cc1cc(-c2nc(C(=O)Nc3cc4cn(C)nc4cc3N3CCCCC3)co2)cc(C)n1 [Example 119, 2-(2,6-dimethylpyridin-4-yl)-N-(2-methyl-6-(piperidin-1-yl)-2H-indazol-5-yl)oxazole-4-carboxamide hydrochloride]"
7,> 7.30,"CN(C)c1cc(-c2nc(C(=O)Nc3cc4cn(C)nc4cc3N3CCCCC3)co2)ccn1 [Example 120, 2-(2-(dimethylamino)pyridin-4-yl)-N-(2-methyl-6-(piperidin-1-yl)-2H-indazol-5-yl)oxazole-4-carboxamide hydrochloride]"
8,> 7.30,"CNc1cc(-c2nc(C(=O)Nc3cc4cn(C)nc4cc3N3CCCCC3)co2)ccn1 [Example 122, N-(2-methyl-6-(piperidin-1-yl)-2H-indazol-5-yl)-2-(2-(methylamino)pyridin-4-yl)oxazole-4-carboxamide hydrochloride]"
9,> 7.30,"Cn1cc2cc(NC(=O)c3coc(-c4ccnc(NS(C)(=O)=O)c4)n3)c(N3CCC(O)CC3)cc2n1 [Example 123, N-(6-(4-hydroxypiperidin-1-yl)-2-methyl-2H-indazol-5-yl)-2-(2-(methylsulfonamido)pyridin-4-yl) oxazole-4-carboxamide]"
10,> 7.30,"Cc1cc(-c2nc(C(=O)Nc3cc4cn(C)nc4cc3N3CCC(O)CC3)co2)cc(C)n1 [Example 126, 2-(2,6-dimethylpyridin-4-yl)-N-(6-(4-hydroxypiperidin-1-yl)-2-methyl-2H-indazol-5-yl) oxazole-4-carboxamide]"
